In publication PMC9490236, “Accurate de novo design of membrane-traversing macrocycles” (Cell, 2022):
Where a SMILES comes first, the peptide text is derived from it. [ ]: non-standard residue; d: D form. NMeF = CN[C@@H](Cc1ccccc1)C(=O)O; dNMeF = CN[C@H](Cc1ccccc1)C(=O)O; NMeL = CN[C@@H](CC(C)C)C(=O)O; dNMeL = CN[C@H](CC(C)C)C(=O)O; NMeA = CN[C@@H](C)C(=O)O; dNMeA = CN[C@H](C)C(=O)O

Columns and labels:
in vitro = conditions: PAMPA, PAMPA_Papp_Avg
[1] = PAMPA

SMILES	Papp (in vitro) [×10⁻⁶ cm/s]	PAMPA_R1 [1]	PAMPA_R3 [1]
CC[C@@H](C)[C@H]1NC(=O)[C@H](Cc2ccccc2)N(C)C(=O)[C@@H](CC(C)C)N(C)C(=O)[C@H](C(C)C)NC(=O)[C@H](C)NC(=O)[C@@H]2CCCN2C(=O)[C@H](CC(C)C)N(C)C(=O)[C@@H](Cc2ccccc2)N(C)C(=O)[C@H](C)N(C)C(=O)[C@H](C)N(C)C1=O [Design D10.56, *DPHE *LEU PRO ALA VAL *DLEU *PHE DILE *ALA *ALA] (cyclo(AV[dNMeL][NMeF][dI][NMeA][NMeA][dNMeF][NMeL]P))	9.02	9.15E-06	8.95E-06
CC[C@@H](C)[C@H]1NC(=O)[C@@H](Cc2ccccc2)N(C)C(=O)[C@@H]2CCCN2C(=O)[C@@H]([C@H](C)CC)NC(=O)[C@@H](Cc2ccccc2)N(C)C(=O)[C@@H]2CCCN2C1=O [Design D6.2, DILE PRO *DPHE DILE PRO *DPHE] (cyclo(P[dNMeF][dI]P[dNMeF][dI]))	12.1	1.72e-05 cm/s	1.15e-05 cm/s
CC[C@H](C)[C@@H]1NC(=O)[C@H](C(C)C)NC(=O)[C@@H](CC(C)C)N(C)C(=O)[C@H](Cc2ccccc2)NC(=O)[C@@H](CC(C)C)N(C)C(=O)[C@@H](C)N(C)C(=O)[C@H]2CCCN2C(=O)[C@@H]2CCCN2C(=O)[C@H](CC(C)C)NC(=O)[C@@H](C)N(C)C(=O)[C@@H]2CCCN2C1=O [Design D11.20, PRO *DALA LEU PRO DPRO *DALA *DLEU PHE *DLEU VAL ILE] (cyclo(F[dNMeL]VIP[dNMeA]LP[dP][dNMeA][dNMeL]))	1.29	1.21E-06	9.60E-07
CC(C)C[C@@H]1NC(=O)[C@@H](Cc2ccccc2)NC(=O)[C@@H](CC(C)C)N(C)C(=O)[C@@H]2CCCN2C(=O)[C@H](C)NC(=O)[C@@H](CC(C)C)N(C)C(=O)[C@@H]2CCCN2C(=O)[C@H](CC(C)C)N(C)C(=O)[C@H](CC(C)C)N(C)C(=O)[C@H](C(C)C)NC1=O [Design D10.20, PRO *DLEU ALA PRO *DLEU DPHE LEU VAL *LEU *LEU] (cyclo(AP[dNMeL][dF]LV[NMeL][NMeL]P[dNMeL]))	2.59	1.95E-06	3.37E-06
CC(C)C[C@@H]1NC(=O)[C@@H](Cc2ccccc2)N(C)C(=O)[C@H](C(C)C)NC(=O)[C@H](C)NC(=O)[C@@H](C)NC(=O)[C@@H](Cc2ccccc2)N(C)C(=O)[C@@H]2CCCN2C(=O)[C@H](C(C)C)NC(=O)[C@@H]2CCCN2C(=O)[C@@H](C)NC1=O [Design D10.48, DALA PRO VAL PRO *DPHE DALA ALA VAL *DPHE LEU] (cyclo(AV[dNMeF]L[dA]PVP[dNMeF][dA]))	0.405	3.54E-07	4.59E-07
CC[C@H](C)[C@@H]1NC(=O)[C@H]2CCCN2C(=O)[C@@H]2CCCN2C(=O)[C@H](CC(C)C)NC(=O)[C@@H](C(C)C)NC(=O)[C@@H](CC(C)C)N(C)C(=O)[C@@H]2CCCN2C1=O [Design D7.1, PRO *DLEU DVAL LEU PRO DPRO ILE] (cyclo(IP[dNMeL][dV]LP[dP]))	2.93	2.76e-06 cm/s	3.53e-06 cm/s
CC(C)[C@H]1NC(=O)[C@@H]2CCCN2C(=O)[C@@H](C)NC(=O)[C@@H](Cc2ccccc2)NC(=O)[C@@H]2CCCN2C(=O)[C@H](Cc2ccccc2)NC1=O [Design D6.7, DPHE DALA PRO DVAL PHE PRO] (cyclo(FP[dF][dA]P[dV]))	0.424	6.27e-07 cm/s	3.67e-07 cm/s
CC[C@H](C)[C@@H]1NC(=O)CNC(=O)[C@@H]2CCCN2C(=O)[C@H]2CCCN2C(=O)[C@H]([C@@H](C)CC)NC(=O)[C@@H](C)N(C)C(=O)[C@@H]2CCCN2C(=O)[C@H](C(C)C)NC(=O)[C@@H](CC(C)C)NC1=O [Design D9.33, DPRO PRO GLY ILE DLEU VAL PRO *DALA ILE] (cyclo(GI[dL]VP[dNMeA]I[dP]P))	0.317	2.73E-07	4.74E-07
CC(C)C[C@@H]1NC(=O)[C@@H](C)N(C)C(=O)[C@@H](CC(C)C)N(C)C(=O)[C@@H]2CCCN2C(=O)[C@H]2CCCN2C(=O)[C@@H](C)NC(=O)[C@@H]2CCCN2C(=O)[C@H]2CCCN2C(=O)[C@@H](CC(C)C)NC1=O [Design D9.27, DLEU DPRO PRO DALA DPRO PRO *DLEU *DALA LEU] (cyclo([dA][dP]P[dNMeL][dNMeA]L[dL][dP]P))	0.0334	3.26E-08	3.49E-08
CC[C@@H](C)[C@H]1NC(=O)[C@@H]2CCCN2C(=O)[C@@H](Cc2ccccc2)NC(=O)[C@H](CC(C)C)N(C)C(=O)[C@H](C)NC(=O)[C@H]2CCCN2C(=O)[C@@H]2CCCN2C(=O)[C@H](CC(C)C)NC(=O)[C@H](CC(C)C)N(C)C(=O)[C@H](C)N(C)C1=O [Design D10.26, PRO DILE *ALA *LEU LEU PRO DPRO ALA *LEU DPHE] (cyclo(A[NMeL][dF]P[dI][NMeA][NMeL]LP[dP]))	1.51	1.40E-06	1.69E-06
CC(C)C[C@H]1C(=O)N2CCC[C@@H]2C(=O)N[C@@H](Cc2ccccc2)C(=O)N2CCC[C@H]2C(=O)N[C@H](C(C)C)C(=O)N[C@H](Cc2ccccc2)C(=O)N1C (single isomer, unassigned) [Design D6.9.p1, DVAL DPHE *LEU DPRO PHE PRO]	5.29	4.01e-06 cm/s	6.97e-06 cm/s
C[C@H]1NC(=O)[C@@H](Cc2ccccc2)NC(=O)[C@H](Cc2ccccc2)N(C)C(=O)[C@H](Cc2ccccc2)N(C)C(=O)[C@@H](Cc2ccccc2)NC(=O)[C@H]2CCCN2C(=O)CNC(=O)[C@@H](C)NC(=O)[C@@H]2CCCN2C(=O)[C@@H](Cc2ccccc2)NC1=O [Design D10.62, DALA GLY DPRO DPHE *PHE *PHE DPHE DALA DPHE PRO] (cyclo(G[dP][dF][NMeF][NMeF][dF][dA][dF]P[dA]))	4.23	4.48E-06	4.48E-06
CC[C@@H](C)[C@H]1NC(=O)[C@H](C)NC(=O)[C@@H](CC(C)C)N(C)C(=O)[C@H](CC(C)C)N(C)C(=O)[C@H](C(C)C)NC(=O)[C@@H]2CCCN2C(=O)[C@@H](CC(C)C)N(C)C(=O)[C@@H](C)N(C)C(=O)[C@@H](Cc2ccccc2)NC(=O)[C@@H]2CCCN2C(=O)[C@H]2CCCN2C1=O [Design D11.6, VAL *LEU *DLEU ALA DILE DPRO PRO DPHE *DALA *DLEU PRO] (cyclo([dF][dNMeA][dNMeL]PV[NMeL][dNMeL]A[dI][dP]P))	0.949	1.24E-06	7.58E-07
CC(C)C[C@H]1NC(=O)[C@@H](C(C)C)NC(=O)[C@H](CC(C)C)N(C)C(=O)[C@@H](Cc2ccccc2)NC(=O)[C@H](CC(C)C)N(C)C(=O)[C@H]2CCCN2C(=O)[C@@H]2CCCN2C(=O)[C@H]2CCCN2C(=O)[C@@H](C(C)C)NC(=O)[C@H]2CCCN2C1=O [Design D10.42, DVAL DLEU DPRO DVAL DPRO PRO DPRO *LEU DPHE *LEU] (cyclo([dP][NMeL][dF][NMeL][dV][dL][dP][dV][dP]P))	0.71	7.55E-07	8.78E-07
CC[C@H](C)[C@@H]1NC(=O)[C@H]2CCCN2C(=O)[C@H](CC(C)C)N(C)C(=O)[C@H](CC(C)C)NC(=O)[C@H](C(C)C)NC(=O)[C@@H]2CCCN2C(=O)[C@H](CC(C)C)N(C)C(=O)[C@H](C(C)C)NC(=O)[C@@H](C(C)C)NC1=O [Design D9.39, DVAL VAL *LEU PRO VAL LEU *LEU DPRO ILE] (cyclo(I[dV]V[NMeL]PVL[NMeL][dP]))	0.466	5.51E-07	2.78E-07
CC[C@H](C)[C@@H]1NC(=O)[C@@H](C(C)C)NC(=O)[C@H](CC(C)C)N(C)C(=O)[C@H]2CCCN2C(=O)[C@H]2CCCN2C(=O)[C@H](C(C)C)NC(=O)[C@@H](CC(C)C)NC(=O)[C@H]2CCCN2C1=O [Design D8.16, DPRO DLEU VAL DPRO DPRO *LEU DVAL ILE] (cyclo(I[dP][dL]V[dP][dP][NMeL][dV]))	2.16	2.86E-06	1.69E-06
CC[C@H](C)[C@@H]1NC(=O)[C@@H]2CCCN2C(=O)[C@H]2CCCN2C(=O)[C@@H](CC(C)C)NC(=O)[C@@H](CC(C)C)N(C)C(=O)[C@@H]2CCCN2C(=O)[C@H](Cc2ccccc2)N(C)C(=O)[C@@H](Cc2ccccc2)NC1=O [Design D8.14, PRO ILE DPHE*PHE PRO *DLEU DLEU DPRO] (cyclo(I[dF][NMeF]P[dNMeL][dL][dP]P))	0.971	1.14E-06	7.14E-07
CC(C)C[C@@H]1NC(=O)[C@@H](C)NC(=O)[C@H]2CCCN2C(=O)[C@@H]2CCCN2C(=O)[C@@H](C(C)C)NC(=O)[C@@H](CC(C)C)N(C)C(=O)[C@H]2CCCN2C(=O)[C@H]2CCCN2C(=O)[C@@H](C)N(C)C(=O)[C@H](CC(C)C)N(C)C(=O)[C@@H](Cc2ccccc2)NC1=O [Design D11.16, LEU DPHE *LEU *DALA DPRO DPRO *DLEU DVAL PRO DPRO DALA] (cyclo(L[dF][NMeL][dNMeA][dP][dP][dNMeL][dV]P[dP][dA]))	0.43	3.70E-07	4.55E-07
CC(C)C[C@@H]1NC(=O)[C@@H](CC(C)C)NC(=O)[C@@H](CC(C)C)N(C)C(=O)[C@@H](CC(C)C)N(C)C(=O)[C@H](C(C)C)NC(=O)[C@@H](C)N(C)C(=O)[C@@H]2CCCN2C(=O)[C@@H]2CCCN2C(=O)[C@@H](C)N(C)C1=O [Design D9.19, PRO *DALA VAL *DLEU *DLEU DLEU LEU *DALA PRO] (cyclo(L[dNMeA]PP[dNMeA]V[dNMeL][dNMeL][dL]))	1.28	1.47E-06	1.16E-06
CC(C)C[C@H]1NC(=O)[C@H](CC(C)C)N(C)C(=O)[C@@H](Cc2ccccc2)NC(=O)[C@@H](C)N(C)C(=O)[C@@H]2CCCN2C(=O)[C@H](C(C)C)NC(=O)[C@H](CC(C)C)N(C)C(=O)[C@@H](C)NC(=O)[C@@H]2CCCN2C(=O)[C@H]2CCCN2C1=O [Design D10.32, PRO *DALA DPHE *LEU DLEU DPRO PRO DALA *LEU VAL] (cyclo([dA][NMeL]VP[dNMeA][dF][NMeL][dL][dP]P))	3.18	2.87E-06	2.80E-06
